Laboratory results taken from paper PMC3420821 (Chemistry & biology, 2011).

What was measured:
CB2 receptors [1] = target: T1, CB2 receptors (Mus musculus, UniProt P47936); experiment: NIR-mbc94 binding competition in intact BV-2 cells; conditions: read-out: Ki (competition for NIR-mbc94 binding)
CB2 receptors [2] = target: T1, CB2 receptors; assay type: binding; conditions: saturation, homogenates of CB2-mid DBT cells
CB2 receptor mRNA = experiment: qPCR of CB2 receptor mRNA in primary microglia; assay type: cell-based, mouse; conditions: 72 hr
CB2 receptors [3] = conditions: ref Rinaldi-Carmona et al., 1998; cited from earlier work

T1 sequence (P47936 whole entry): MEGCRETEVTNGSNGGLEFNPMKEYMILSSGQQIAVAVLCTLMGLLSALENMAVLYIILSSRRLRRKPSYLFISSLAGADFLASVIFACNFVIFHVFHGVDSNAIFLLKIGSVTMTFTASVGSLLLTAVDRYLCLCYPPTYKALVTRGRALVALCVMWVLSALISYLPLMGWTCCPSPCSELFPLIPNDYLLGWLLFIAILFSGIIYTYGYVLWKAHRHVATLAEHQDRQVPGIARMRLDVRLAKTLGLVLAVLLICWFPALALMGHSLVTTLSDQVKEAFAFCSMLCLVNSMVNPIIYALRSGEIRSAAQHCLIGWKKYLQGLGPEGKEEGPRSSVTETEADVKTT

## Cc1c(C(=O)c2cccc3ccccc23)c2cccc3c2n1[C@H](CN1CCOCC1)CO3 [WIN55212-2]
CB2 receptors [1]
  Ki: 3 nM

## CCCCCCC(C)(C)c1ccc([C@@H]2C[C@H](O)CC[C@H]2CCCO)c(O)c1 [[^3H]-CP-55,940]
CB2 receptors [2]; read-out: Kd of [3H]-CP-55,940
  Kd: 3.1 nM
CB2 receptors [2]
  Bmax of [3H]-CP-55,940: 6 pmol/mg

## IL-4: cytokine that promotes alternative activation phenotype in macrophages/microglia
CB2 receptor mRNA
  increase of CB2 receptor mRNA: ~ 5 fold

## SR144528
CB2 receptors [3]
  affinity at CB2 receptors: nanomolar affinity

## TGFβ
CB2 receptor mRNA
  effect on CB2 receptor expression (mRNA): did not affect
